Experiment [1] deals with SSB mRNA in liver. Put plainly: In vivo gene knockdown, liposomal siRNA formulation (Example 3), SSB siRNA. More on the design: species or system CD1 mice. Particulars: liposomal formulation, SSB siRNA, dose 3.2 mg/kg intravenously, CD1 mice, liver harvested three days later, real-time RT-PCR, GAPDH reference. Here is the method:
(§1) Each liposome formulation was made by mixing lipids of each lipomacrocycle compound (Table 1) combined with DSPC, DMG-PEG 2K, and cholesterol at the weight ratio of 3.85:0.42:0.21:0.79 in ethanol and siRNA in water. Then 5% dextrose water was added in each formulation before dosing to mice.
(§2) All procedures used in animal studies conducted were approved by the Institutional Animal Care and Use Committee (IACUC) and were consistent with local, state and federal regulations as applicable. Mice, rats, and rabbits received siRNA formulations intravenously at dose volume of 0.2 ml, 1 ml, or 10 ml, respectively. Animals were sacrificed 2 to 7 days later. Tissues were harvested and mRNA was isolated with Turbocapture kit (Qiagen) for analyzing change of gene expression with real-time RT-PCR method (SensiMix SYBR One-Step Kit, Bioline). Serum was harvested for analyzing blood chemistry.
(§3) CD1 mice were dosed with lipid particle (Table 1) or liposome (Table 2) siRNA formulation intravenousely and the different tissues were harvested three days later. The gene expression was analyzed with real-time RT-PCR method (for liver, GAPDH as reference gene; for lung and bone marrow, GAPDG and β-actin as reference genes).

Experiment [2] has as its system SSB mRNA in liver. Put plainly: In vivo gene knockdown, lipid particle siRNA formulation (Example 4), SSB siRNA. Particulars: lipid particles, dose 3.2 mg/kg intravenously, CD1 mice, liver harvested three days later, real-time RT-PCR, GAPDH reference. Here is the method: Lipid Particle formulations were made by first mixed siRNA in an aqueous solution with DOTMA in organic solvent to produce a water-insoluble precipitate. After isolating and drying the precipitate, the precipitate was dissolved in chloroform and further mixed with other lipids as following: Each lipid particle formulation was consisting of 1 part DOTMA+siRNA complex/5 parts any lipomacrocycle compound (Table 1)/1.5 parts N 6-tetrakis (3-aminopropyl)-1,3-propanediamine cholesteryl carbamate/2.2 parts 1,2-dilinoleoyl-sn-glycero-3-phosphoethanolamine/10.08 parts cholesterol PEG-660/4.32 parts cholesterol PEG-660/0.6 parts cholesterol (weight/weight). All the components were dissolved in chloroform and mixed together. Then, the mixtures were dried overnight in Speedvac. The dried formulations were hydrated by adding in certain amount of 5% dextrose water before dosing to animals intravenously.
as §2, §3
In general terms: In qPCR the cycle at which signal appears reflects the starting amount.

The test system of the next experiment is APOB mRNA in liver. Put plainly: In vivo gene knockdown, liposomal siRNA formulation (Example 3), APOB siRNA. Particulars: dose 3 mg/kg intravenously, CD1 mice, liver harvested three days later, real-time RT-PCR, GAPDH reference. The method, then: as §1, §2, §3

For `CCCCCCCCCCCCCCOCC(O)CN1CCCN(CC(O)COCCCCCCCCCCCCCC)CCCN(CC(O)COCCCCCCCCCCCCCC)CCC1` (stereo not drawn) [Compound M9C1], the “Targeted mRNA remain in liver” value was determined as 0.3 in the experiment on SSB mRNA in liver [1] and 0.2 in the experiment with SSB mRNA in liver [2].
Taken in the same sequence, the figures for `CCCCCCCCCCCCC(O)CN1CCN(CC(O)CCCCCCCCCCCC)CCN(CC(O)CCCCCCCCCCCC)CCN(CC(O)CCCCCCCCCCCC)CC1` (stereo not drawn) [Compound T2C6] were 0.66 and 0.86.
With `CCCCCCCCCCCCCCOCC(O)CN(CCCN(CCCN(CCCN(CC(O)COCCCCCCCCCCCCCC)CC(O)COCCCCCCCCCCCCCC)CCCN(CC(O)COCCCCCCCCCCCCCC)CC(O)COCCCCCCCCCCCCCC)CCCN(CC(O)COCCCCCCCCCCCCCC)CC(O)COCCCCCCCCCCCCCC)CC(O)COCCCCCCCCCCCCCC` (stereo not drawn) [Compound T3C1], the figures for the “Targeted mRNA remain in liver” value in the experiment with SSB mRNA in liver [1] and in the experiment with SSB mRNA in liver [2] were 0.13 and 0.18, respectively.
For `CCCCCCCCCCCCOCC(O)CN(CCCN(CCCCN(CCCN(CC(O)COCCCCCCCCCCCC)CC(O)COCCCCCCCCCCCC)CCCN(CC(O)COCCCCCCCCCCCC)CC(O)COCCCCCCCCCCCC)CCCN(CC(O)COCCCCCCCCCCCC)CC(O)COCCCCCCCCCCCC)CC(O)COCCCCCCCCCCCC` (stereo not drawn) [Compound T4C10], the “Targeted mRNA remain in liver” value in the experiment on APOB mRNA in liver worked out at 0.82.
The same measure, in the same setting: the same measure for `CC(C)(C)c1ccc(C(=O)OCC(O)CN(CCCN(CCCCN(CCCN(CC(O)COC(=O)c2ccc(C(C)(C)C)cc2)CC(O)COC(=O)c2ccc(C(C)(C)C)cc2)CCCN(CC(O)COC(=O)c2ccc(C(C)(C)C)cc2)CC(O)COC(=O)c2ccc(C(C)(C)C)cc2)CCCN(CC(O)COC(=O)c2ccc(C(C)(C)C)cc2)CC(O)COC(=O)c2ccc(C(C)(C)C)cc2)CC(O)COC(=O)c2ccc(C(C)(C)C)cc2)cc1` (stereo not drawn) [Compound T4C11]: 1.07.
The same measure, in the same setting: the same measure for `CC(C)(C)C(O)(CCc1ccc(Cl)cc1)CN(CCCN(CCCCN(CCCN(CC(O)(CCc1ccc(Cl)cc1)C(C)(C)C)CC(O)(CCc1ccc(Cl)cc1)C(C)(C)C)CCCN(CC(O)(CCc1ccc(Cl)cc1)C(C)(C)C)CC(O)(CCc1ccc(Cl)cc1)C(C)(C)C)CCCN(CC(O)(CCc1ccc(Cl)cc1)C(C)(C)C)CC(O)(CCc1ccc(Cl)cc1)C(C)(C)C)CC(O)(CCc1ccc(Cl)cc1)C(C)(C)C` (stereo not drawn) [Compound T4C18]: 1.56.
